{"source": "patent US20230390297A1", "about": "“USE OF NUCLEOTIDE SYNTHESIS INHIBITORS FOR TARGETED THERAPY IN MLL3/4 COMPASS MUTANT CANCER” (priority 2022, published 2023)", "key": {"[1]": {"system": "RKO, HCT116, DLD1, Caco2, HT55 and SW1417 cells", "test": "Western blot of cell cycle and apoptosis markers in colorectal cancer cells", "assay_type": "cell-based, human", "conditions": "1 μM LTX, 24 hours; MLL4 mutant vs WT cells", "experimental": "FIG. 5. MLL4 mutant colorectal cancer cells are selectively sensitive to lometrexol treatment. (A) 100 μL of 0.5×10^5 cells/mL cells were seeded in 96-well plates one day before treatment. Cells were treated with 0-30 μM lometrexol (LTX) with 3× fold dilution for 72 hours. CellTiter-Glo® luminescent cell viability assay was performed to determine the percentage of inhibition under these conditions. The line plot compares sensitivity difference of all cell lines tested. (B) RKO, HCT116, DLD1, Caco2, HT55 and SW1417 cells were treated with DMSO or 1 μM LTX for 24 hours and whole cell lysates were used for western blot against cell cycle (H3 Ser10-p, CDT1, CyclinB 1, Geminin, CyclinEl, CyclinA2, p-cdc2) and apoptosis (PARP, Caspase3) markers using Hsp90 and I3-tubulin as loading control. […] (F) A subset of representative terms from the full cluster were selected and converted into a network layout. Each term is represented by a circle node, where its size is proportional to the number of input genes fall under that term, and its color represent its cluster identity. Terms with a similarity score>0.3 are linked by an edge (the thickness of the edge represents the similarity score). The network is visualized with Cytoscape with “force-directed” layout and with edge bundled for clarity. One term from each cluster is selected to have its term description shown as label. […]"}, "Mll3/4 KO mESCs": {"system": "Mll3/4 KO mESCs", "test": "CellTiter-Glo luminescent cell viability assay in WT and Mll3/4 KO mESCs", "assay_type": "cell-based, mouse", "conditions": "48 hours", "experimental": "(§1) FIG. 3. […] (A) WT and Mll3/4 KO cells were treated with 0-2.5 μM lometrexol (LTX)−/+50 hypoxanthine (HPX) for 48 hours. CellTiter-Glo® luminescent cell viability assay was performed to determine the percentage of inhibition under these conditions. (B) WT and KO cells were treated with 0.3 μM LTX−/+50 μM HPX for 48 hours, and cells were harvested for RNA-seq. Differential gene expression analyses were performed with indicated comparisons. (C) Principal component analysis of RNA-seq in (B). (D) Hierarchical clustering heatmap showing differentially expressed genes in KO cells in comparison with WT cells.\n(§2) FIG. 10. Mll3/4 KO mESCs are more sensitive to purine synthesis inhibition. (A-B) WT and Mll3/4 KO cells were treated with 0-2.5 μM lometrexol (LTX) (A) or 0-5 methotrexate (MTX) (B) for 48 hours. CellTiter-Glo® luminescent cell viability assay was performed to determine the percentage of inhibition under these conditions with three different Mll3/4 KO clones included. (C) WT and Mll3/4 KO cells were treated with 0-40 μM SHIINI for 48 hours. MTT cell viability assay was performed to determine the percentage of inhibition under these conditions with three different Mll3/4 KO clones included."}, "[2]": {"system": "MLL4 mutant colorectal cancer cells (SW480, DLD1, HCT116, RKO)", "test": "CellTiter-Glo viability assay in MLL4 wild type and MLL4 mutant colorectal cell lines", "assay_type": "cell-based, human", "conditions": "72 hours; LTX 0-30 μM, Piericidin A 0-10 μM, Phenformin 0-30 mM"}, "MLL3/4 ΔSET cells": {"system": "MLL3/4 ΔSET cells", "test": "CellTiter-Glo viability assay in WT, MLL3/4 ΔSET and MLL3/4 KO cells", "assay_type": "cell-based, mouse", "conditions": "0-2.5 μM LTX, 72 hours", "excerpt": "FIG. 11. […] (A) Western blot showing MLL4, MLL3, NCOA6, UTX, RbBP5 and ASH2L protein levels in WT, MLL3/4 ASET and MLL3/4 KO cells with Hsp90 as the loading control. Bulk levels of histone H3K4me1, H3K4me2, H3K4me3 and H3K27Ac were also shown. N, N-terminus; C, C-terminus. mESCs harboring deletion of the SET domains of both MLL3 and MLL4 (referred to as MLL3/4 ΔSET) were generated in our previous studies (20). (B) Western blot showing nuclear and cytoplasmic MLL4, UTX, NCOA6 and RBBP5 protein levels after cell fractionation, with MLL1 and Hsp90 serving as nuclear and cytoplasmic loading control. (C) WT, MLL3/4 ΔSET and MLL3/4 KO cells were treated with 0-2.5 μM lometrexol (LTX) for 72 hours. CellTiter-Glo® luminescent cell viability assay was performed to determine the percentage of inhibition."}, "WT and Mll3/4 KO mESCs": {"system": "WT and Mll3/4 KO mESCs", "test": "RNA-seq of WT and Mll3/4 KO mESCs treated with LTX -/+ HPX", "assay_type": "cell-based, mouse", "conditions": "48 hours", "experimental": "as §1, §2\nGene count tables were constructed using HTseq (56) with Ensembl gene annotations and used as input for edgeR 3.0.8 (57). Genes with Benjamini-Hochburg adjusted p-values less than were differentially expressed. Batch effects were removed using ComB at-seq on the raw read counts (58). Pathway analysis was performed with Metascape (59)."}}, "data": [{"compound": "Nc1nc2c(c(=O)[nH]1)C[C@@H](CCc1ccc(C(=O)N[C@@H](CCC(=O)O)C(=O)O)cc1)CN2", "note": "[lometrexol, (2S)-2-[[4-[2-[(6R)-2-amino-4-oxo-5,6,7,8-tetrahydro-3H-pyrido[2,3-d]pyrimidin-6-yl]ethyl]benzoyl]amino]pentanedioic acid]", "values": [{"measurement": "cell cycle markers H3 Ser10-p, CDT1, CyclinB1 (western blot)", "setting": "[1]", "value": "significant downregulation of histone H3 Serine10 phosphorylation (H3 Ser10-p), CDT1 and CyclinB1 was observed only in MLL4 mutant cells but not WT cells"}, {"measurement": "sensitivity of Mll3/4 KO cells compared with WT cells (percentage of inhibition of viability)", "setting": "Mll3/4 KO mESCs; LTX 0-2.5 μM, MTX 0-5, three Mll3/4 KO clones", "value": "elevated sensitivity to LTX in Mll3/4 KO cells"}, {"measurement": "rescue of cell growth and/or viability inhibition by hypoxanthine", "setting": "Mll3/4 KO mESCs; LTX 0-2.5 μM + 50 hypoxanthine (HPX)", "value": "completely rescued by HPX"}, {"measurement": "sensitivity of MLL4 mutant cells compared with MLL4 wild type cells (growth inhibition)", "setting": "[2]", "value": "selectively more sensitive"}, {"measurement": "sensitivity of MLL3/4 ΔSET cells compared with WT mESCs (percentage of inhibition)", "setting": "MLL3/4 ΔSET cells", "value": "indistinguishable sensitivity to LTX in comparison to WT mESCs"}, {"measurement": "gene expression change in WT and Mll3/4 KO cells", "setting": "WT and Mll3/4 KO mESCs; 0.3 μM LTX or 50 μM HPX alone, LTX effect almost completely rescued by HPX", "value": "induced significant gene expression change"}, {"measurement": "genes commonly downregulated in WT and KO cells", "setting": "WT and Mll3/4 KO mESCs; 0.3 μM LTX", "value": 1063, "unit": "genes"}, {"measurement": "genes commonly upregulated in WT and KO cells", "setting": "WT and Mll3/4 KO mESCs; 0.3 μM LTX", "value": 1195, "unit": "genes"}]}]}
